Tests used:
Jurkat cells = experiment: Jurkat cell viability by trypan blue exclusion; type: cell-based; settings: 6 μM LAC
Method: Tonsillar T cells (A, B, and D) and Jurkat cells (C and E) were treated with LAC (10 μM for T cells and 6 μM for Jurkat cells). LAC was added at the beginning of the culture or 40 h after T cell activation as indicated. The cells were harvested at the time points as shown. They were evaluated for their viability with trypan blue exclusion (A, B, and C), and for their mode of cell death according to DNA fragmentation (D and E). The effect of LAC on Jurkat cells was quite similar to that on the activated T cells.

CDK4 = experiment: Immunoprecipitation kinase assay, CDK4; type: cell-based, human; settings: PHA-activated T cells; LAC 10 μM added once at 0 h; examined at 16 h and 40 h
Method: Tonsillar T cells were activated with PHA (2 μg/ml) for a period as indicated in each graph. LAC (10 μM) was added once at 0 h. The cells were harvested at 16 h, 24 h, or 40 h as indicated. An equal amount of lysate protein ([…]) was precipitated with rabbit anti-CDK4, anti-CDK2 or anti-Cyclin E antisera (2.5 μg Ab/sample). The immune complexes were assayed for their kinase activities using histone H1 as a substrate. (A) CDK4 kinase activity. (B) CDK2 kinase activity. (C) Cyclin E-associated CDK activity. The membrane in (C) was subsequently hybridized with anti-Cyclin E (1 μg/ml) followed by ^125I-protein A for the evaluation of the protein level of Cyclin E.
This was in agreement with the critical role of CDK4 in the early […].
Lymphocytes were lysed by a lysis buffer as used in the immunoblotting (Chen et al., 1996, supra), and cleared lysates were quantitated for their protein content. For immunoprecipitation, 50 μl of rabbit antisera against CDK2, CDK4 or Cyclin E were added to the lysates equivalent to 20 or 40 μg protein depending on the experiment. After 2 h incubation at 4° C., the immune complexes were recovered by protein A-conjugated Sepharose (Pharmacia Biotech, Montreal, Quebec, Canada). […] The proteins were then transferred to PVDF membranes and the signals were detected by autoradiography.

p27^Kip1 = experiment: Immunoblotting of p27Kip1 level in T cells; type: cell-based, human; settings: PHA, LAC 10 μM added once at 0 h
Method: Tonsillar T cells were stimulated with PHA (2 μg/ml) for 16 h, 40 or 64 h in the absence or presence of LAC (10 μM). For the 16 h and 40 h culture, LAC was added once at 0 h. For the 64 h culture, LAC was added once at 40 h. The cell lysates were resolved in 10% SDS-PAGE, and blotted onto PVDF membranes. The membranes were hybridized with rabbit anti-p27^Kip1 antisera (FIG. 9A) or with anti-p21^Cip1 antisera (FIG. 9B) followed by ^125-protein A. The experiments were performed three times, and similar results were obtained. Representative data is shown.
In addition to the cyclin levels, the CDK activities are also controlled by several low molecular weight inhibitors. We have examined in this study the effect of the proteasome on the CDK inhibitors p27^Kip1 (Hall et al., 1995, supra) and p21^Cip1 (el-Deiry et al., 1993, Cell 75:817). […] This is in agreement with previous reports (Hengst et al., 1996, Science 271:1861; Nourse et al., 1994, Nature 372:570). […] The blockage was less obvious when assayed at 40 h, probably because the gradual loss of LAC activity during the 40 h culture. […]
Immunoblotting was employed to evaluate the levels of Cyclin E, cyclin A, p21^Cip1 and p27^Kip1. […] The cleared lysates were quantitated for protein concentrations. […] The signals on the membrane were detected by [^125I]-protein A followed by autoradiography.

[1] = tested on: human peripheral blood mononuclear cells; experiment: Aggregate formation of PHA-stimulated PBMC; type: cell-based; settings: 2 μg/ml PHA plus 10 μM lactacystin; 24 h
Source text: Cell-cell interaction is essential in antigen presentation and in T cell's help to T and B cells. The adhesion molecules are necessary to establish the cell-cell interaction. Blocking the adhesion molecules ICAM-1 and LFA-1 is known to inhibit immune responses and to suppress graft rejection. […] Therefore, inhibition of the proteasome activity will be a useful way to control undesirable immune responses during graft rejection, autoimmune diseases, and inflammation.

[2] = tested on: calpain, cathepsin B, chymotrypsin, trypsin, and papain; settings: cited from earlier work

In the case of CC(=O)N[C@@H](CSC(=O)[C@]1([C@@H](O)C(C)C)NC(=O)[C@H](C)[C@@H]1O)C(=O)O [LAC, lactacystin], the “trypan blue positive cells” value (Jurkat cells; 24 h culture) is reported as “about 60%”, the “cell death (trypan blue)” value (Jurkat cells; less than 8 h exposure) is reported as “did not induce apparent Jurkat cell death” and the CDK4 kinase activity (CDK4) is reported as “did not affect the CDK4 activity”. The “decrease (degradation) of p27Kip1” value (p27^Kip1; assayed at 16 h) was “significantly blocked the decrease”, the “blockage of p27Kip1 decrease” value (p27^Kip1; assayed at 40 h) was “less obvious” and the aggregate formation [1] was “effectively block the aggregate formation”. For the same compound, the “effect on other proteases” value [2] was “does not affect”.
